Results as given in US12089542B2, “Subsurface drip irrigation (SDI) lines enhanced with essential oils” (Metzerplas Cooperative Agricultural Organization Ltd., priority 2020, dated 2024).

Tests used:
mash bean seeds [1] = assay: Combination of active ingredients: mash bean root development in open jars with ARC2 films; format: in vivo; settings: 7% in ARC2 film
Procedure: In order to evaluate the efficacy of Thymol relative to another EO, and to see if combination could result in synergistic activity, an additional experiment was conducted using ARC2 polymer (Cloisite 15A 10 wt % nanoclay) with mash bean seeds in open jars. Cotton wool was placed in the jar as a substrate in the center of which the seeds were sown. Three types of EOs were incorporated into the ARC2 polymer films (7% Thymol, 7% pelargonic acid, and 3.5% Thymol/3.5% pelargonic acid) with a dimension of 1 cm width, 3 cm length, and 3 mm thickness were tested and compared to a reference sample (without EO). Each film was placed adjacent to the jar wall. Seeds were watered once a day for 14 weeks.

Sorghum = assay: Greenhouse experiment using Sorghum and 5% Thymol, root clogging of SDI drippers; format: in vivo; settings: for % Clogged drippers / Clogged drippers / Clean drippers: 2.5 months greenhouse; for roots accumulated on top of the pipe in the area of the drippers' holes: FIG. 7; for Clogged drippers / Clean drippers: number of drippers; for Clogged drippers: ARC1 film in pipe or Treflan pipe
Procedure: In order to confirm the results of Example 1 in a more agricultural settind and in a different pant variety, Sorghum seeds were grown in a TROPICO-type greenhouse (TOP Company), at Kibbutz Metzer (Israel) during the summer season, for 2.5 months.
Individual PP (polypropylene) cases were built for seed beds, with the dimensions of 40 cm height, 20 cm width, and 5 meters length. ARC1-based active films were inserted into PE SDI pipes as in Example 1, and activity of thymol as a root inhibitor was compared to that of TREFLAN chemical herbicide (positive control), as well as to herbicide free pipe used as a negative control.
The pipes were placed 15 cm above the bed's bottom, mimicking a buried drip irrigation situation at a realistic ‘field depth’ for the SDI system. Holes were drilled at the bed's edges to allow easy access to the initial and the last pipe and to enable simple irrigation and fertilization control.
The seed beds were filled with ‘Ram 8’-type (Tuff Merom Golan), a professional planting substrate, 80% coarse peat/20% coconut composition.
“Bulldozer”-type sorghum seeds, supplied by CTS Company, were sown. Sorghum is categorized as a classical field-growth plant and characterized by a robust and aggressive root system with secondary growth ability after ‘green’ harvesting without inflorescence.
The sowing process corresponded to field sowing. Eight seeds per meter were sown at 2.5 cm deep, with 12.5 cm sowing intervals.
Irrigation regime was determined differentially, taking into consideration climate data and irrigation type. During the first week from sowing, the irrigation carried out using sprinklers without fertilization. After sprouting and germination, the irrigation was performed through underground drip irrigation only, accompanied by proportional fertilization, “fertilizer-all”-type 17-10-27, with trace elements. The level of fertilizer in irrigation water was about 30 ppm nitrogen. In contrast to example 1, irrigation and fertilization regimes performed were minimal to create ‘starvation’ and cause the roots to aggressively migrate towards the drippers' holes in search of water and fertilizer.

mash bean seeds [2] = assay: Inhibition of root penetration in subsurface pipes by Thymol-active based film (5%), lab planters; format: in vivo
From the text: Holes were drilled at the bottom for water drainage. PE pipe was specially manufactured by METZERPLAS (Israel), with a coating that prevents diffusion of materials through the PE matrix. Pipe diameter 16 mm with a wall thickness of 0.9 mm. A VARDIT 16-type adjusted dripper was selected, with a flow rate of 1.2 liters/hour for each dripper spaced 20 cm apart across the pipes, which were placed 5 cm from the planter base. An ARC1-based active film (Cloisite 15 3% wt and Thymol 5%) was inserted to one pipe [FIG. 2] and its activity was compared with another pipe with no active agent, used as a negative control.
The planting substrate was Perlite mixed with Hydroton, and mash bean seeds were sown after surface-sterilization with 10% […], for 20 min, to avoid possible inhibition caused by toxins from fungi or bacteria. Seeds were then rinsed with an abundance of distilled water 20 g of seeds were sown 7 cm deep in each flowerbox.
A high ratio of seeds:volume was intentionally used to increase the chance of root intrusion.
Irrigation regimen was set at four times a day for ten minutes. The experiment was conducted in a lab, with light supplied 24 hours a day, and room temperature±25° C. After twenty days, the drippers were opened to examine whether the Thymol was able to function as an anti-root (AR) agent and protect the SDI pipe from root intrusion.

tomato seeds = assay: Bioassay of Thymol activity on plant health and development, tomato; format: in vivo; settings: ARC2 film (7% Thymol) adjacent to box wall
Procedure: (§1) In order to determine the suitability of Thymol as an anti-root (AR) agent in a variety of agricultural settings, Thymol activity was tested on different seed types.
(§2) The experiment was conducted for two months during the spring with an ambient temperature of ±30° C. Plastic boxes of 30 cm length, 20 cm width, and 15 cm height were filled with German Kalsmann peat, coconut fiber, ventilation materials, and slow-release fertilizers as planting substrate.
(§3) Cucumber, tomato, beetroot, and sweet corn seeds were each sown in two boxes (8 boxes in total); one box of each seed type was used as a negative control and in the other box (experimental) an ARC2-based active film (Cloisite 15A 10 wt % nanoclay; 7% Thymol) was placed adjacent to the box wall to assess Thymol activity [FIG. 12]. The film folded in half, corresponding to the length and width dimensions of the box.
(§4) For each seed type, both boxes were placed outdoors according to the sun intensity the plant requires. Each seed type was given an appropriate amount of water evenly, using a can.

[3] = Quantitative analysis of Thymol concentration remaining in the film (extraction, Gibbs reagent, UV-visible); format: physicochemical
Procedure: The amount of Thymol remaining in the films immediately after processing and at the end of each experiment was determined by UV-visible 1650PC spectrophotometer (Shimadzu), through extraction. The procedure is suitable for different phenolic EOs and is based on Gibbs reagent (2,6-dichlorobenzoquinone 4-chloroimine).
Briefly, different Thymol-active films were cut to small pieces, weighed, and extracted by refluxing with 2-propanol at a ratio of 500 mg film/25 ml propanol, for 2 hours. To 100 ml volumetric flasks containing 10 ml of a standard Buffer solution of Boric Acid+Potassium Chloride, 1 ml of the extraction solution, 4 mL of 2-propanol, and 1 ml of Gibbs reagent solution was added. The solution was allowed to stand for 15 min to enable the reaction to occur fully. The resulting violet water-soluble dye has a maximum absorption at 590 nm wavelength. Thymol concentration retained in the film, as a proportion of the nominal concentration, was calculated from a calibration curve. Two replicates were measured for each standard.

cucumber seeds = assay: Bioassay of Thymol activity on plant health and development, cucumber; format: in vivo
Procedure: as §1, §2, §3, §4

sweet corn seeds = assay: Bioassay of Thymol activity on plant health and development, sweet corn; format: in vivo; settings: ARC2 film (7% Thymol) adjacent to box wall
Procedure: as §1, §2, §3, §4

beetroot seeds = assay: Bioassay of Thymol activity on plant health and development, beetroot; format: in vivo; settings: ARC2 film (7% Thymol) adjacent to box wall
Procedure: as §1, §2, §3, §4

helianthus seeds = assay: Helianthus seeds in planters with 7% Thymol (ARC2 film in pipe); format: in vivo
Procedure: In order to evaluate the effect of increasing the amount of Thymol, an additional experiment was conducted using ARC2 polymer (Cloisite 15A 10 wt % nanoclay; 7% Thymol). The experiment was conducted on helianthus seeds during the summer season, temperature above 30° C., for two months.
Planter dimensions were 110 cm length, 10 cm width, and 15 cm height. The pipes were placed 5 cm from the planter base, where holes were drilled for drainage.
One planter contained negative control pipe, while ARC2-based active film (experimental) was inserted to pipe in experimental planters as in examples 1 and 2.
Potting soil for plant growth was a mixture of German Kalsmann peat, coconut fiber, ventilation materials, and slow-release fertilizers, mixed with Perlite.
Thirty seeds were sown in two columns at 1 cm depth and 7 cm intervals.
Irrigation cycle was set twice daily for three minutes.
As in previous examples, the number of seeds sown relative to the planter size was large and irrigation regime was minimal to increase the root-intrusion tendency.

root growth = assay: Cumulative data from examples 1 through 4: Thymol concentration and root growth; format: in vivo; settings: low concentrations; at higher concentrations anti-root activity
[4] = beds opened at end of experiment

CCCCCCCCC(=O)O [Pelargonic acid]
effect on root growth (mash bean seeds [1]; after two weeks, FIG. 18): inhibitory effect on root growth compared to the reference sample, but the effect was less

Cc1ccc(C(C)C)c(O)c1 [Thymol]
% Clogged drippers (Sorghum; listed as Thymol 1): 0% | % Clogged drippers (Sorghum; listed as Thymol 2): 4.76% | roots accumulated on top of the pipe in the area of the drippers' holes (Sorghum; [4]): lower than that obtained for the negative control | effect on roots development / harm to the crop under cultivation (Sorghum; in vivo): less harmful to the crop under cultivation than Treflan | efficacy in deterring roots from dripper openings relative to Treflan (Sorghum; in vivo): roughly as effective as Treflan | Clogged drippers (Sorghum): one | Clogged drippers (Sorghum; listed as Thymol 1): 0 | Clogged drippers (Sorghum; listed as Thymol 2): 1 | Clean drippers (Sorghum; listed as Thymol 1): 15 | Clean drippers (Sorghum; listed as Thymol 2): 20 | root inhibitory effect (mash bean seeds [1]; after 3 weeks, FIG. 19): best root inhibitory effect | root penetration of drippers (mash bean seeds [2]; drippers opened after twenty days, ARC1 film, Thymol 5%, in pipe): remained free of roots | number of germinated seeds compared with reference planter (mash bean seeds [2]; first four days, ARC1-based active film (Cloisite 15 3% wt, Thymol 5%) inserted in pipe): greater | growth rate of roots and seedlings compared with reference planter (mash bean seeds [2]; up to two weeks, ARC1 film, Thymol 5%, in pipe): faster | germination rate compared with control box (tomato seeds): faster | amount of Thymol remaining in the film ([3]; after 2 months in soil, film in pipe, welded outside or at a distance): around 5 % of the amount nominally incorporated in the film prior to processing | Thymol concentration in the film below which inhibitory activity decreases ([3]; initial concentration at the beginning of the manufacturing process): about 9 % of the initial concentration | Thymol concentration remaining in the film, sorghum experiment versus mash bean experiment ([3]; two and a half months (sorghum) vs two months (mash bean)): slightly higher | germination rate compared with control box (cucumber seeds; ARC2 film (7% Thymol) adjacent to box wall): faster | number of germinated seeds compared with control box (cucumber seeds; FIG. 13): greater | seedlings' growth rate compared with control box (cucumber seeds; FIG. 13, after 43 days): continued to be faster | time until 6 seeds germinated (cucumber seeds; FIG. 13, control box 17 days): 11 days | germination rate compared with control box (sweet corn seeds): faster | germination rate compared with control box (beetroot seeds): faster | germination rate compared with negative control planter (helianthus seeds; ARC2 film (Cloisite 15A 10 wt %, 7% Thymol) in pipe): faster | number of helianthus flowers (helianthus seeds; after 55 days, control planter 19): 24 | drippers penetrated by roots (helianthus seeds; out of five drippers, end of experiment (two months), control three out of five): two | seedling growth rate compared with control planter (helianthus seeds; until plants reached maximum height): remained faster | concentration at which Thymol can stimulate root growth (root growth): < 0.4 wt %

CCCN(CCC)c1c([N+](=O)[O-])cc(C(F)(F)F)cc1[N+](=O)[O-] [Treflan, trifluralin, reference compound]
% Clogged drippers (Sorghum): 0% | soil moisture in proximity to drippers (Sorghum; beds opened at end of experiment, FIG. 6, compared with negative control): higher degree of moisture | roots accumulated on top of the pipe in the area of the drippers' holes (Sorghum; [4]): no root concentration areas are observed | root state of drippers (Sorghum; end of experiment): root-clean | Clean drippers (Sorghum): 20 | Clogged drippers (Sorghum): 0 | effect on roots development / harm to the crop under cultivation (Sorghum; subjective evidence): more aggressive and detrimental effect on roots development
